Here are results for five compounds from patent US8835375B2 (Applied Nanosystems B.V., priority 2006, dated 2014).

Data set [1] is described as follows: proteolytic resistance in pig liver homogenate. The class given is in vitro ADME. The note with it: for metabolised at 3 h, 0.2 μmol angiotensin/mg liver homogenate / half-life: pig; for metabolised at 3 h, 0.2 μmol angiotensin/mg liver homogenate: pig liver homogenate, read-out: Degradation after 3 h (%). As for the experimental part: (§1) Angiotensin (wildtype or cyclised analogs, chemically produced [Cyc 4-7] Ang(1-7) or biologically produced [Cyc 4-7] Ang(1-8)) was added to homogenates of pig liver (0.2 μmol angiotensin/mg liver homogenate), pig kidney (0.2 μmol angiotensin/mg kidney homogenate), pig pancreas (0.8 μmol angiotensin/mg pancreas homogenate) or plasma (1 μmol angiotensin/ml) and incubated at 37° C., pH 7.4 or pH 5, for different time periods up to 30 hours. The enzymatic reaction was stopped by 100° C. for 5 min. The remaining amount of intact angiotensin was determined by RP-HPLC with C18-column, mobile phase gradient and 214 nm detection.

Data set [2] in a line: proteolytic resistance in pig kidney homogenate. The class given is in vitro ADME. The following applies: for metabolised at 3 h, 0.2 μmol angiotensin/mg kidney homogenate / half-life: pig; for metabolised at 3 h, 0.2 μmol angiotensin/mg kidney homogenate: pig kidney homogenate, read-out: Degradation after 3 h (%). As for the experimental part: as §1
Data set [3] in a line: proteolytic resistance in pig pancreas homogenate. In kind it is in vitro ADME. The following applies: for metabolised at 3 h, 0.8 μmol angiotensin/mg pancreas homogenate / half-life: pig; for metabolised at 3 h, 0.8 μmol angiotensin/mg pancreas homogenate: pig pancreas homogenate, read-out: Degradation after 3 h (%). As for the experimental part:
as §1

A short description of data set [4]: proteolytic resistance in plasma. In kind it is in vitro ADME. The note with it: pH 7.4, 37° C. On the procedure:
as §1

Data set [5] concerns Angiotensin Converting Enzyme (ACE). Briefly: Angiotensin Converting Enzyme (ACE) from Porcine kidney, SIGMA, 8 nM in 100 mM Tris-HCl, 300 mm NaCl, 10 μM Zn, pH 8.3. The note with it: 37° C.
Data set [6] deals with T1, Angiotensin Converting Enzyme (ACE) from Porcine kidney (Sus scrofa, UniProt F1RRW5).
T1 construct: Angiotensin Converting Enzyme (ACE) from Porcine kidney, SIGMA; purchased SIGMA; host or cells: porcine kidney (tissue-derived)
T1 sequence (F1RRW5 34-1309): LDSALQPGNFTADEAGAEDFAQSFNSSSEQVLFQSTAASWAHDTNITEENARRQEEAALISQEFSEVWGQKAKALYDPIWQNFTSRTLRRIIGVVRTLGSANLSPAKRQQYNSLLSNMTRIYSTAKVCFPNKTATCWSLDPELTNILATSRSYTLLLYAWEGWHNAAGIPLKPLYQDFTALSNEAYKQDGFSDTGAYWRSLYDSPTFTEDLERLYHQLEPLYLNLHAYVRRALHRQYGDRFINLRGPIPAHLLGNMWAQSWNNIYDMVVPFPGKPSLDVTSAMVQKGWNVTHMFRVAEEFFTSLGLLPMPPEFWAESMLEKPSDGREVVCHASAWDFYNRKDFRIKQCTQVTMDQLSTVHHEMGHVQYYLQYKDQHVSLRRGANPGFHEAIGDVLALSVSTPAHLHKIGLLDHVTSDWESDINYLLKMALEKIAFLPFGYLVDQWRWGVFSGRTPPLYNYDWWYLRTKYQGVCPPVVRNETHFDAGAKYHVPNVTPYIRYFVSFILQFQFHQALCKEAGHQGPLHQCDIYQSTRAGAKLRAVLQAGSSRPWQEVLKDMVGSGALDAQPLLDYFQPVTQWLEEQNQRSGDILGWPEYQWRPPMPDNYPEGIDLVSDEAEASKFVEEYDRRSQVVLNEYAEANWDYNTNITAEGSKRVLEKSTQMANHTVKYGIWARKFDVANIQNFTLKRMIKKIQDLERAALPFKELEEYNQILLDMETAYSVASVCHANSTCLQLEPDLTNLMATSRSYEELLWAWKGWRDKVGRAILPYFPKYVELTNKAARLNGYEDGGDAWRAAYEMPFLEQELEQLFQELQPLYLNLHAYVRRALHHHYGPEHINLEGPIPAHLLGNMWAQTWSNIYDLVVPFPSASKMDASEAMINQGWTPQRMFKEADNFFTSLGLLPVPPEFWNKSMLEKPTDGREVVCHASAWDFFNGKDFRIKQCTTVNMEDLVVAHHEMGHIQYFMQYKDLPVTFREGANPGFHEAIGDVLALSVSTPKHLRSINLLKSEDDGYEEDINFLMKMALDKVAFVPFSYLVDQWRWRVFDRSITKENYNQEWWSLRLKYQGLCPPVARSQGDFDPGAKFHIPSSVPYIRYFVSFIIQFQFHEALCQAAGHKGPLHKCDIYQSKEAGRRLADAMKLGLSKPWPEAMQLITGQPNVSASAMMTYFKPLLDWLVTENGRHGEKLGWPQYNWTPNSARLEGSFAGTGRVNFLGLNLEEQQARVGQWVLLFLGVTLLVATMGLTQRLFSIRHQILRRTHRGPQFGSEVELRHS
The experiment in a line: resistance against angiotensin converting enzyme (ACE). In kind it is in vitro ADME. The following applies: 4 nM ACE, 50 μM peptide. On the procedure:
Angiotensin Converting Enzyme (ACE) from Porcine kidney, SIGMA, was used at 4 nM final concentration, FIGS. 2A and 2B, or at 8 nM final concentration, FIGS. 2C and 2D. Natural Ang(1-7) was purchased from Bachem. All experiments were performed in duplicate in a waterbath at 37° C., incubations were performed in a buffer containing 100 mM Tris-HCl, 300 mm NaCl, 10 μM Zn, pH 8.3. Thioether-ring-containing angiotensin was obtained by bacterial production using L. lactis containing the nisin modification and transporter enzymes, NisBTC. Natural angiotensin(1-7), lanthionine-containing angiotensin(1-7) and methyllanthionine-containing angiotensin(1-7) were each used at a concentration of 50 μM. Both the lanthionine and the methyllanthionine variant had the thioether bridge between positions 4 and 7. The reaction was stopped by 100° C. for 5 minutes and put on ice. Samples were centrifuged for 10 min at 14000 rpm at 4° C. and quantified by RP-HPLC. Identification of the HPLC peaks was performed using Maldi TOF mass spectrometry. All points are the average of two measurements.

The nature of data set [7]: in vivo stability during continuous intravenous infusion in the rat (Maldi TOF of plasma). The arrangement: species or system Sprague Dawley rat. The note with it: i.v. infusion 1 mL/hour of 100 μM of each peptide together, sample taken at 120 min. As for the experimental part:
Rats (Sprague Dawley) were infused during 2 hours at a speed of 1 mL/hour with a solution containing simultaneously two compounds: both 100 μM natural Ang(1-7) as well as 100 μM methyllanthionine-containing angiotensin(1-7) with the thioether bridge between positions 4 and 7. Methyllanthionine-containing angiotensin(1-7) was prepared using L. lactis expressing lantibiotic enzymes as described in example 1. Maldi TOF analyses were performed on plasma samples as described in example 3. Undiluted sample (upper spectrum, mass peak of 826.06 Da at the arrow) and 100-fold diluted sample (lower spectrum, mass peak of 826.47 Da at the arrow) both gave a peak of the right mass, i.e. corresponding to intact methyllanthionine-containing angiotensin(1-7) (Theoretical mass M+H^+ equals 825.9758). […] In a control experiment mixing natural angiotensin(1-7) ex vivo with rat plasma, allowed subsequent detection of natural angiotensin(1-7) (not shown). Experimental details are mentioned in the text of example 3.
A male Sprague Dawley rat was kept under O2/Isoflurane (1.5-2%) narcosis throughout the study. A jugular vein catheter was applied and connected to a syringe containing 0.9% physiological salt solution. The syringe was mounted onto an infusion pump and the flow rate set to 1 mL/hour. […]

[8] abbreviates: pH 7.4, versus linear angiotensin(1-7).
[9] abbreviates: tissue homogenate, pH 7.4, 37° C.

What is called half-life is the time needed for the level to fall by half in the phase considered. High values mean slow decline, low ones rapid decline.

Where two headings read alike, the source gives them in different places. Non-standard residues stand in square brackets, D forms with d. No end group written: not given here. Abu = CC[C@H](N)C(=O)O Bounds are passed on as bounds.

Turning to `CC[C@H](C)[C@H](NC(=O)[C@H](Cc1ccc(O)cc1)NC(=O)[C@@H](NC(=O)[C@H](CCCNC(=N)N)NC(=O)[C@@H](N)CC(=O)O)C(C)C)C(=O)N[C@@H](Cc1cnc[nH]1)C(=O)N1CCC[C@H]1C(=O)N[C@@H](Cc1ccccc1)C(=O)O` [Ang(1-8), Asp-Arg-Val-Tyr-Ile-His-Pro-Phe, reference compound], the metabolised at 3 h, 0.2 μmol angiotensin/mg liver homogenate in data set [1] (pH 7.4, 37° C.) was 98%. Besides, in data set [2] (pH 7.4, 37° C.), the metabolised at 3 h, 0.2 μmol angiotensin/mg kidney homogenate was found to be 100%. In addition, the metabolised at 3 h, 0.8 μmol angiotensin/mg pancreas homogenate in data set [3] (pH 7.4, 37° C.) amounted to 70%.

On to `CC[C@H](C)[C@@H]1NC(=O)[C@H](NC(=O)[C@@H](NC(=O)[C@H](CCCNC(=N)N)NC(=O)[C@@H](N)CC(=O)O)C(C)C)CSC[C@@H](C(=O)O)NC(=O)[C@H](Cc2c[nH]cn2)NC1=O` [[Cyc^4-7]Ang(1-7), Asp-Arg-Val-Ala-Ile-His-Ala], for which the half-life in data set [4] is 15.4 h; in data set [1] (tissue homogenate, pH 5.0, 37° C.) it was 11.8 h; in data set [1] (setting [9]) it was 1.13 h; in data set [2] (tissue homogenate, pH 5.0, 37° C., cell printed in hours), greater than 24 h; in data set [2] (setting [9]) it was 0.533 h; in data set [3] (tissue homogenate, pH 7.4, 37° C., cell printed in hours), greater than 24 h. The metabolised at 3 h, 1 μmol/ml in data set [4] (read-out: Degradation after 3 h (%)) stood at 15%. In data set [1] (pH 5, versus linear angiotensin(1-7)), the “increase of half-life by ring introduction” value is 5 fold. Besides, the “increase of half-life by 4,7-cyclisation” value is 2 fold in data set [1] (setting [8]), 6 fold in data set [2] (setting [8]) and “more than 18 fold” in data set [3] (setting [8]). Also, the metabolised at 3 h, 0.2 μmol angiotensin/mg liver homogenate in data set [1] (pH 5.0, 37° C.) worked out at 8%; in data set [1] (pH 7.4, 37° C.), 82%. For the same compound, the metabolised at 3 h, 0.2 μmol angiotensin/mg kidney homogenate in data set [2] (pH 5.0, 37° C.) came out at 4%; in data set [2] (pH 7.4, 37° C.), 91%. The “Half-life (min)” value in data set [3] (pH 5.0, 37° C.) is “∞”. For the same compound, the metabolised at 3 h, 0.8 μmol angiotensin/mg pancreas homogenate in data set [3] (pH 5.0, 37° C.) turned out to be 6%; in data set [3] (pH 7.4, 37° C.), 4%.

With `CC[C@H](C)[C@@H]1NC(=O)C(NC(=O)[C@@H](NC(=O)[C@H](CCCNC(=N)N)NC(=O)[C@@H](N)CC(=O)O)C(C)C)C(C)SC[C@@H](C(=O)N[C@@H](Cc2ccccc2)C(=O)O)NC(=O)[C@H](Cc2c[nH]cn2)NC1=O` (stereo partly drawn) [[Cyc^4-7]Ang(1-8), Asp-Arg-Val-Abu-Ile-His-Ala-Phe], in data set [1] (pH 7.4, 37° C.), the half-life stood at 1.12 h and the metabolised at 3 h, 0.2 μmol angiotensin/mg liver homogenate was found to be 100%. Moreover, in data set [2] (pH 7.4, 37° C.), the half-life was 0.117 h and the metabolised at 3 h, 0.2 μmol angiotensin/mg kidney homogenate stood at 100%. In data set [3] (pH 7.4, 37° C.), the half-life is 8.05 h and the metabolised at 3 h, 0.8 μmol angiotensin/mg pancreas homogenate amounted to 21%.

With DRVAIHA, the not cleaved result in data set [5] was “no breakdown observed”.

For “DRV[Abu]IHA [methyllanthionine-containing Ang(1-7)]”, the “formation of Ang(1-5) by incubation with ACE” value in data set [6] was “did not lead to the appearance of Ang(1-5)”. In addition, in data set [6] (26 hour incubation, 37° C., pH 8.3), the “breakdown by ACE” value was “no degradation”. In addition, in data set [7], the “detection of intact peptide in plasma by Maldi TOF” value is recorded as “detected”.
